Experimental data taken from patent US20060223846A1, “Aza-bridged-bicyclic amino acid derivatives as alpha4 integrin antagonists” (priority 2005, published 2006).

Tested on: α4β7 integrin-positive cells
Test: Intraperitoneal Delayed Type Hypersensitivity (IP-DTH) Response, ovalbumin challenge
Format: in vivo
Conditions: 80 mg/kg, sc, qd × 2; mice, 48 hours after antigen challenge
From the text: Intraperitoneal Delayed Type Hypersensitivity (IP-DTH) Response. A Method for Analyzing Effects of Integrin Antagonists In Vivo
Background: Integrin antagonists are meant to interfere with the binding or adhesion of immune cells, such as lymphocytes, monocytes and eosinophils that bear integrin receptors to counter-receptors that exist on endothelial cells in the vasculature. Among those integrin-bearing cells, cells that are positive for α4β7 integrin are found in the mesenteric system and in the gut, and would comprise many of the cells recruited to a peritoneal antigen challenge. One can maximize the number of α4β7 integrin-positive cells recruited by inducing an intraperitoneal delayed type hypersensitivity response to antigen that will recruite antigen-responsive cells from the mesenteric lymph nodes. An inhibitor of α4β7 integrin should prevent the recruitment of these cells to the site of antigen challenge. […]
The cells were stained with fluorochrome-coupled antibody to α4β7 integrin or a primary antibody to α4β7 integrin followed by a secondary fluorochrome-coupled antibody. […] The cells were then transferred to test tubes and maintained at 4° C. until analyzed by flow cytometry to determine numbers of α4β7-postive cells. […]

Structure (SMILES): O=C(Nc1ccc(CC(NC(=O)C2C3CCC(CC3)N2C(=O)Cc2ccsc2)C(=O)O)cc1)c1c(Cl)cncc1Cl (centres unmarked) [Cpd 3]
- Percent Decrease in recruited α4β7+ cells: 20%

Structure (SMILES): CC(C)(C)CCN1C2CCC(CC2)[C@H]1C(=O)N[C@@H](Cc1ccc(NC(=O)c2c(Cl)cncc2Cl)cc1)C(=O)O [Cpd 16, 3-{4-[(3,5-dichloro-pyridine-4-carbonyl)-amino]-phenyl}-2-{[2-(3,3-dimethyl-butyl)-2-aza-bicyclo[2.2.2]octane-3-carbonyl]-amino}-propionic acid]
- Percent Decrease in recruited α4β7+ cells: 56%
